Test results as given in patent US11590147B2, “17-hydroxyprogesterone ester-containing oral compositions and related methods” (Lipocine Inc., priority 2015, dated 2023).
Like-named read-outs stand apart in the source and are kept apart here.

Tests used:
[1] = cited from earlier work
[2] = Saxton et al. 2004; Greene NEJM; cited from earlier work
[3] = Phase 1b open-label pharmacokinetic study in healthy pregnant women (single dose data and simulated steady state); assay type: in vivo, human (pregnant women); conditions: for Cmax / AUC(0-t): female, human, in vivo, N = 7; for Cmax / AUC(0-t) / AUCSS / Css, max: pregnant women; for AUC(0-t): read-out: AUC0-24; for AUCSS / Css, max: simulated steady state; for AUCSS: 1 week duration
Protocol: Formulations (e.g., oral dosage forms like those described herein) were used in a Phase 1b open-label study that enrolled eight healthy; pregnant women at 16 to 18 weeks gestation. All subjects received three treatments in sequence. In period one, subjects received two doses of 400 mg with oral dosage forms like those described herein, administered 12 hours apart. In period two, subjects received two doses of 800 mg oral with dosage forms like those described herein, administered 12 hours apart. In period three, subjects were given 250 mg of HPC via intramuscular injection (marketed product Makena®). Blood samples were collected periodically over 24 hours following oral dosing and over 28 days following the IM dose.
Steady state pharmacokinetic parameters for oral and IM dosing regimens were simulated based on single dose data and the Cmax and […] values are shown in the table below.

[4] = oral 400 mg BID (two doses 12 hours apart)
[5] = oral 800 mg BID (two doses 12 hours apart)

Cmax [3, 4]: 21.3 ng/mL
AUC(0-t) [3, 4]: 156 ng·h/mL
Cmax [3, 5]: 63.2 ng/mL
AUC(0-t) [3, 5]: 577 ng·h/mL
absorption following oral administration ([3]; healthy pregnant women): significant HPC absorption
AUCSS ([3]; oral 400 mg BID): 1074 ng·h/mL
AUCSS ([3]; oral 800 mg BID): 4058 ng·h/mL
Css, max ([3]; oral 400 mg BID): 21.6 ng/mL
Css, max ([3]; oral 800 mg BID): 71.1 ng/mL
Compound: CCCCCC(=O)O[C@]1(C(C)=O)CC[C@H]2[C@@H]3CCC4=CC(=O)CC[C@]4(C)[C@H]3CC[C@@]21C [Example 17HPC, 17-hydroxyprogesterone caproate]
solubility in water [1]: < 0.02 µg/mL
oral activity [2]: no oral activity
increase in exposure with dose ([3]; 800 mg dose vs 400 mg dose, oral): more than dose proportional increase in exposure
